Test results reported in patent US20020111282A1, “Antimicrobial compositions containing quaternary ammonium compounds, silanes and other disinfectants with furanones” (priority 2000, published 2002).

Assays:
[1] = Solubility in water; type: physicochemical
[2] = tested on: Alternaria alternata; assay: Zone of inhibition assay on TLC plates overlaid with agar containing fungal spores; type: cell-based; conditions: 10 μl spotted
Description: (§1) Fungi used: Alternaria alternata, Aureobasidium pullulans, Cladosporium cladosporioides, Penicillium digitatum Method: Base formulas for A, B, C and D were prepared as described in Table 1 below. Subsequently, test solutions were prepared either by: (1) taking a furanone or a base formula alone; or (2) by adding small amounts of suitably solubilized furanone (i.e., normally using ethanol) to a base formula so as to deliver a series of furanone concentrations in the test solutions (i.e., 10 ug/ml, 5 ug/ml, 1 ug/ml, 500 ng/ml, 100 ng/ml and 10 ng/ml). […] The various test solutions are set out at the left-hand margin of Tables 2A to 2D and can be described as follows: Once the test solutions were prepared, 10 μl of each test solution was spotted onto TLC plates. The plates were overlaid with agar containing fungal spores. The TLC plates were incubated in a high humidity environment until growth could be observed visually. At inhibitory furanone concentrations, a zone of inhibition where no fungal growth was observed formed above the test solution spot. Lower furanone concentrations resulting in a zone of inhibition correspond to higher test solution efficacy.

[3] = tested on: Cladosporium cladosporioides; assay: as above; type: cell-based; conditions: 10 μl spotted
Description: as §1

[4] = tested on: Penicillium digitatum; assay: as above; type: cell-based; conditions: 10 μl spotted
Description: as §1

[5] = tested on: Aureobasidium pullulans; assay: as above; type: cell-based; conditions: 10 μl spotted
Description: as §1

[6] = 10 ng/ml furanone in test solution
[7] = 100 ng/ml furanone in test solution
[8] = 500 ng/ml furanone in test solution
[9] = 5 μg/ml furanone in test solution
[10] = 10 μg/ml furanone in test solution
[11] = 1 μg/ml furanone in test solution

SMILES: O=C1C=C(Br)/C(=C/Br)O1 [Furanone 30]
- Solubility in water [1]: sparingly soluble in water
- Zone of Inhibition with 10 ng/ml of Furanone (mm) [2, 6]: 0 mm
- Zone of Inhibition with 100 ng/ml of Furanone (mm) [2, 7]: 2-3 mm
- Zone of Inhibition with 500 ng/ml of Furanone (mm) [2, 8]: 3-4 mm
- Zone of Inhibition with 5 μg/ml of Furanone (mm) [2, 9]: 35-37 mm
- Zone of Inhibition with 10 μg/ml of Furanone (mm) [2, 10]: 40-42 mm
- Zone of Inhibition with 10 ng/ml of Furanone (mm) [3, 6]: 0 mm
- Zone of Inhibition with 100 ng/ml of Furanone (mm) [3, 7]: 9-10 mm
- Zone of Inhibition with 500 ng/ml of Furanone (mm) [3, 8]: 20-21 mm
- Zone of Inhibition with 1 μg/ml of Furanone (mm) [3, 11]: 20-30 mm
- Zone of Inhibition with 5 μg/ml of Furanone (mm) [3, 9]: 40-45 mm
- Zone of Inhibition with 10 μg/ml of Furanone (mm) [3, 10]: 42-56 mm
- Zone of Inhibition with 10 ng/ml of Furanone (mm) [4, 6]: 0 mm
- Zone of Inhibition with 100 ng/ml of Furanone (mm) [4, 7]: 0 mm
- Zone of Inhibition with 500 ng/ml of Furanone (mm) [4, 8]: 10-19 mm
- Zone of Inhibition with 1 μg/ml of Furanone (mm) [4, 11]: 12-15 mm
- Zone of Inhibition with 10 μg/ml of Furanone (mm) [4, 10]: 32-45 mm
- Zone of Inhibition with 10 ng/ml of Furanone (mm) [5, 6]: 0 mm
- Zone of Inhibition with 100 ng/ml of Furanone (mm) [5, 7]: 0 mm
- Zone of Inhibition with 500 ng/ml of Furanone (mm) [5, 8]: 0 mm
- Zone of Inhibition with 1 μg/ml of Furanone (mm) [5, 11]: 0 mm
- Zone of Inhibition with 5 μg/ml of Furanone (mm) [5, 9]: 3-10 mm
- Zone of Inhibition with 10 μg/ml of Furanone (mm) [5, 10]: 15-17 mm
